{"source": "patent US20110280913A1", "about": "“Methods and Compositions for Delivering Therapeutic Agents in the Treatment of B-Cell Related Disorders” (THE OHIO STATE UNIVERSITY, priority 2008, published 2011)", "key": {"[1]": {"tested_on": "CLL cells", "assay": "Apoptosis of CLL cells with lenalidomide alone", "assay_type": "cell-based, human", "settings": "0.5 μM lenalidomide, 48 or 72 hours", "procedure": "CLL B cells were isolated by Ficoll centrifugation using Rosette-Sep reagent (StemCell Technologies, Vancouver, BC) according to the manufacturer's instructions. CLL cells were incubated in RPMI 1640 medium supplemented with 10% heat-inactivated human serum (Valley Biomedical, Winchester, Va.), 2 mM L-glutamine (Invitrogen, Carlsbad, Calif.), and 100 U/mL penicillin/100 μg/mL streptomycin (Sigma-Aldrich, St Louis, Mo.) at 37° C. in 5% CO2.\nIn addition, samples with no treatment or crosslinker alone were collected at matched time points. […]\nCytotoxicity results were expressed as percentage of total positive cells over untreated control [% positive cells=(% annexin^+ and/or PI^+ cells of treatment group)−(% annexin^+ and/or PI^+ cells of untreated control)]."}, "[2]": {"tested_on": "CD20", "assay": "Immunophenotyping (flow cytometry) of CD20 on CLL cells", "assay_type": "cell-based, human", "procedure": "(§1) Immunophenotyping was performed to determine the percentage and mean fluorescence intensity of CD20, CD19, CD5, CD23, CD38, CD3, and CD52 on CLL cells relative to a specific isotype control. Cells (10^6) were washed in PBS, stained with fluorochrome-labeled antibodies at 4° C., then rinsed in PBS and analyzed by flow cytometry (EPICS-XL; Beckman Coulter, Fullerton, Calif.). A total of 10,000 events were collected and analyzed using Windows Multiple Document Interface for Flow Cytometry (WinMDI). CD20, CD19, CD3, CD5, CD23, and CD38 antibodies were obtained from BD Biosciences (San Jose, Calif.), and CD52 antibody was obtained from Serotec (Raleigh, N.C.).\nAll analyses were performed by the Center for Biostatistics, The Ohio State University. Mixed effects models were fitted to the cytotoxicity data. Random effects associated with the interactions were always included in the models to ensure that error was not underestimated. SPSS software, version 13.0 (SPSS, Chicago, Ill.) was used for the statistical analysis. Nonparametric paired Wilcoxon signed ranked tests were performed to examine both the proportion and mean fluorescence intensity change of cells expressing specific antigens after treatment with lenalidomide or media for 48 hours. A paired t test was used to evaluate whether there was a change in CD20 expression level between cells treated with lenalidomide and untreated control."}, "[3]": {"tested_on": "CD38", "assay": "Immunophenotyping (flow cytometry) of CD38 on CLL cells", "assay_type": "cell-based, human", "settings": "0.5 μM, 48 h, vs vehicle, n=6, P<0.05", "procedure": "as §1"}, "[4]": {"tested_on": "CD19", "assay": "Immunophenotyping (flow cytometry) of CD19 on CLL cells", "assay_type": "cell-based, human", "settings": "0.5 μM, vs vehicle", "procedure": "as §1"}, "[5]": {"tested_on": "CD5", "assay": "Immunophenotyping (flow cytometry) of CD5 on CLL cells", "assay_type": "cell-based, human", "settings": "0.5 μM, vs vehicle", "procedure": "as §1"}, "[6]": {"tested_on": "CD20 mRNA", "assay": "Real-time RT-PCR of CD20 mRNA in CLL cells", "assay_type": "cell-based, human", "settings": "24 and 48 hours, compared with vehicle control", "procedure": "RNA was extracted with TRIzol reagent (Invitrogen) according to the manufacturer's directions and converted to cDNA with the SuperScript First-Strand Synthesis System (Invitrogen). Real-time polymerase chain reaction was performed using custom-designed primers for CD20 (ID: Hs00544819_m1; Applied Biosystems, Foster City, Calif.) and an ABI Prism 7700 sequence detection system (Applied Biosystems). The expression of CD20 relative to an internal control gene was calculated by plotting the Ct (cycle number), and the average relative expression for each group was determined using the comparative method (2^−Ct).^24\nThe inventors herein then determined whether the mechanism by which lenalidomide down-regulates CD20 antigen was via decreased transcription. CD20 mRNA expression level was assessed by real-time reverse-transcribed polymerase chain reaction (RT-PCR) in lenalidomide- and vehicle-treated CLL cells at 24 and 48 hours."}, "[7]": {"tested_on": "CD20", "assay": "Intracellular CD20 staining (flow cytometry)", "assay_type": "cell-based, human", "procedure": "CLL cells were incubated with a molar excess of rituximab to saturate the binding of extracellular CD20. Cells were washed twice with PBS and then fixed and permeablilized using the Cytofix/Cytoperm Kit (BD Biosciences PharMingen, San Diego, Calif.) according to the manufacturer's recommendations. Cells were then incubated with CD20-phycoerythrin (PE) antibody, washed twice in PBS, and analyzed by flow cytometry. To ensure the specificity of the staining procedure, binding of IgG1-k isotype antibody was also measured."}, "[8]": {"tested_on": "CD20", "assay": "Laser-scanning confocal microscopy of CD20 internalization", "assay_type": "cell-based, human", "settings": "lenalidomide 48 h at 37° C.", "procedure": "Binding and internalization of anti-CD20 in CLL cells were examined by laser scanning confocal microscopy. CLL cells were incubated with lenalidomide for 48 hours at 37° C. and then collected and washed twice with PBS followed by fixation with 2% paraformaldehyde. Cells were then attached on a slide glass using Cytospin (Thermo Electron, Waltham, Mass.) and permeablilized with cold acetone for 5 minutes. Before cell membrane and nucleus staining, cells were preincubated with 1% bovine serum albumin in PBS for 1 hour at room temperature to reduce nonspecific binding. Cells were incubated with 50 μg/mL concanavalin A (Invitrogen) for 5 minutes at room temperature to stain cell membrane and with 1 μg/mL DRAQ5TM (Biostatus, Leicestershire, United Kingdom) for 5 minutes at room temperature to stain nucleus. Finally, slides were rinsed twice with PBS and covered with glass for confocal microscopy observation. Green fluorescence of fluorescein isothiocyanate-CD20, red fluorescence of concanavalin A, and blue fluorescence of DRAQ5 were analyzed, and merged images were produced using Zeiss 510 META Laser Scanning Confocal Imaging Systems and LSM Image software (Carl Zeiss, Thornwood, N.Y.)."}, "[9]": {"tested_on": "CD20", "assay": "Immunoblot of total CD20 protein", "assay_type": "cell-based, human", "settings": "48 and 72 hours, relative to vehicle control", "procedure": "Immunoblot assays were performed with the multiple antigen detection immunoblotting method as described previously.^23 Whole-cell lysates were prepared and stored in −80° C. Protein concentration was quantified by the bicinchoninic acid method (Pierce Chemical, Rockford, Ill.). Protein samples (50 μg) were separated by sodium dodecyl sulfate-polyacrylamide gel electrophoresis (12%) and transferred to 0.2-μm nitrocellulose membranes (Whatman Schleicher & Schuell, Keene, N.H.) and incubated with goat antihuman CD20 (Santa Cruz Biotechnology, Santa Cruz, Calif.) or rabbit antiactin (Cell Signaling Technology, Danvers, Mass.) antibodies. Horseradish peroxidase-conjugated goat anti-rabbit IgG (Bio-Rad, Hercules, Calif.) was used as secondary antibody Immune complexes were detected using chemiluminescent substrate (SuperSignal; Pierce Chemical)."}, "[10]": {"tested_on": "B-cell lymphoma cell lines", "settings": "cited from earlier work"}, "[11]": {"settings": "dose range 0.05-3 μM, evaluated at 24, 48 and 72 hours"}}, "data": [{"smiles": "Nc1cccc2c1CN(C1CCC(=O)NC1=O)C2=O", "note": "(centres unmarked) [lenalidomide]", "values": [{"measurement": "apoptosis in vitro", "setting": "[1]", "result": "no apoptosis"}, {"measurement": "reduction in the proportion of CD20-expressing cells", "setting": "[2]; 0.5 μM, 48 h, compared with vehicle-treated controls, n=18, P<0.001", "result": "at least 40%"}, {"measurement": "reduction in relative mean fluorescence intensity of CD20-expressing cells", "setting": "[2]; 0.5 μM, 48 h, compared with vehicle-treated controls, n=18, P=0.001", "result": "at least 40%"}, {"measurement": "concentration of maximum effect on CD20 down-regulation", "setting": "[2]; [11]", "result": 0.5, "unit": "µM"}, {"measurement": "time of maximum effect on CD20 down-regulation", "setting": "[2]; [11]", "result": 72, "unit": "h"}, {"measurement": "CD38 activation marker level on CLL cells", "setting": "[3]", "result": "increased levels"}, {"measurement": "CD19 expression on CLL cells", "setting": "[4]", "result": "no changes"}, {"measurement": "CD5 expression on CLL cells", "setting": "[5]", "result": "no changes"}, {"measurement": "CD20 mRNA transcription", "setting": "[6]", "result": "very modest increase"}, {"measurement": "CLL subject samples with reduction of CD20 antigen surface expression", "setting": "[7]; after lenalidomide treatment", "result": "6 of 8"}, {"measurement": "intracellular CD20 fluorescence", "setting": "[7]; compared with vehicle-treated controls, P=0.006", "result": "increased intracellular fluorescence"}, {"measurement": "CD20 internalization in CLL cells", "setting": "[8]", "result": "actively internalized"}, {"measurement": "total level of CD20 protein", "setting": "[9]", "result": "no variation"}, {"measurement": "CD20 surface antigen expression", "setting": "[10]", "result": "without affecting"}]}]}
